Laboratory results from ChEMBL document CHEMBL1165959, “Novel tricyclic Delta(2)-isoxazoline and 3-oxo-2-methyl-isoxazolidine derivatives: synthesis and binding affinity at neuronal nicotinic acetylcholine receptor subtypes” (Bioorg Med Chem, 2010).

Experiments:
[1] = target: Neuronal acetylcholine receptor subunit alpha-7 (Rattus norvegicus, UniProt Q05941); assay: Displacement of [125I]alpha-Bungarotoxin from alpha7 nAChR in rat cortical membrane; format: cell membranes
[2] = target: Neuronal acetylcholine receptor; alpha4/beta2 (Rattus norvegicus, UniProt P09483+P12390); assay: Displacement of (+/-)-[3H]epibatidine from alpha4beta2 nAChR in rat cortical membrane; format: cell membranes
Neuronal acetylcholine receptor; alpha4/beta2, sequence (P09483 whole entry): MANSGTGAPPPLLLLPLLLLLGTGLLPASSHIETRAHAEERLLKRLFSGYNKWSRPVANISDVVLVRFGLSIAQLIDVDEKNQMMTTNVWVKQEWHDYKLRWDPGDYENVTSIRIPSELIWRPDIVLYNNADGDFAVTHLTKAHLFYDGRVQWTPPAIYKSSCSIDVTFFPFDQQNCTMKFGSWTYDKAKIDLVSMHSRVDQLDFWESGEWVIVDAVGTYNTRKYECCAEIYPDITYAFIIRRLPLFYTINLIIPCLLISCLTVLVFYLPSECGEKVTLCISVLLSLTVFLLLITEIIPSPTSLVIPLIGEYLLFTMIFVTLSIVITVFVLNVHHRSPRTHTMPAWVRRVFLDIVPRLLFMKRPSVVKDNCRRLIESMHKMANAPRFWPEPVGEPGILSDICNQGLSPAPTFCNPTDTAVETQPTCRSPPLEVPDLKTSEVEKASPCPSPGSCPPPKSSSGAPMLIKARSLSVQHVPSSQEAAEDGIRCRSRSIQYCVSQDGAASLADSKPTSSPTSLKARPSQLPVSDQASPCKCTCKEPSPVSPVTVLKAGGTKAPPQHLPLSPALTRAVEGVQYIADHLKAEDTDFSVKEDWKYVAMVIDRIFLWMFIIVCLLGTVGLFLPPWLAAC
Neuronal acetylcholine receptor; alpha4/beta2, sequence (P12390 whole entry): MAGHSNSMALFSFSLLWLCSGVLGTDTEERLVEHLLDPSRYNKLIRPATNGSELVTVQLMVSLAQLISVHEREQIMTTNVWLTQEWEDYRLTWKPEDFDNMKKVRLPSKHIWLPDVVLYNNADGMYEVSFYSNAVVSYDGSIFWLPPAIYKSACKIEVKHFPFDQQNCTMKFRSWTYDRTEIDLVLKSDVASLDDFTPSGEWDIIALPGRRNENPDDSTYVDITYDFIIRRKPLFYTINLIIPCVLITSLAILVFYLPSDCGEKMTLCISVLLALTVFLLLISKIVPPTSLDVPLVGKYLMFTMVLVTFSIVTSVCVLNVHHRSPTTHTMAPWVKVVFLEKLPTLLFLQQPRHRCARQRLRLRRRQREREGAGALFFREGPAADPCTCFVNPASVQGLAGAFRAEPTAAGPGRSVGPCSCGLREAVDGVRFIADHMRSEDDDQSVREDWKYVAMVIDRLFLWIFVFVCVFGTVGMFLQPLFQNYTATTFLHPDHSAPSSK

Neuronal acetylcholine receptor subunit alpha-7, sequence (Q05941 whole entry): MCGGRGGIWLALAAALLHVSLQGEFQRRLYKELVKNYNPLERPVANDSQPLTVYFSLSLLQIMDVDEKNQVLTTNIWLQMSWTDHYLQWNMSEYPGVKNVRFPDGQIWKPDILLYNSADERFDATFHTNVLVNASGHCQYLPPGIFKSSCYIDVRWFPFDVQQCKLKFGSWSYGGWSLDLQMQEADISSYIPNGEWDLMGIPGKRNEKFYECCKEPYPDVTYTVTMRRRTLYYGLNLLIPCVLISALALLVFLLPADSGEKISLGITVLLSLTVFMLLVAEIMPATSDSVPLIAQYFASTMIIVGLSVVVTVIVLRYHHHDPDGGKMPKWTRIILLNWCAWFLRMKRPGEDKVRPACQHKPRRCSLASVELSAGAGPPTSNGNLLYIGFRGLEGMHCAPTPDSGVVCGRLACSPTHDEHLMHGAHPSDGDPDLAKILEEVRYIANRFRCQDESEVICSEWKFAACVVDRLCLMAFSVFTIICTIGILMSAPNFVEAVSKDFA

Compound	Ki [1]	Ki [2]
BrC1=NOC2CC3CNCC(C3)C12 (centres undefined)	28.5 µM	0.92 µM
COC1=NOC2C3CCC(CC12)N3 (centres undefined)	28.2 µM	4.5 µM
CN1OC2CC3CNCC(C3)C2C1=O (centres undefined)	> 100 µM	79 µM
BrC1=NOC2C3CCC(CC12)N3 (centres undefined)	20 µM	0.75 µM
COC1=NOC2CC3CCC(N3)C12 (centres undefined)	68 µM	53 µM
CC(=O)C1=CC[C@H]2CC[C@@H]1N2	> 10 µM	0.094 µM
BrC1=NOC2CC3CCC(N3)C12 (centres undefined)	109 µM	260 µM
CN1OC2C3CNCC(C3)CC2C1=O (centres undefined)	9.5 µM	1.8 µM
CN1OC2CC3CCC(N3)C2C1=O (centres undefined)	> 100 µM	50 µM
CN1OC2C3CCC(CC2C1=O)N3 (centres undefined)	> 100 µM	100 µM
COC1=NOC2CC3CNCC(C3)C12 (centres undefined)	170 µM	31 µM
O=c1cccc2n1C[C@@H]1CNC[C@H]2C1 [CYTISINICLINE]	0.3 µM	0.0004 µM
